One assay has as its system OCI-LY3 cells. Kind of assay: Mitomycin C dose-response with JAK2 inhibitor TG101348 (CellTiter-Glo). It is filed as cell-based, human. Conditions: mitomycin C with TG101348 at 0.2, 0.4, 0.6 uM, 48 hrs. Here is the method: The JAK2-selective inhibitor TG101348 and Mitomycin C was purchased from Selleckchem and Tocris Bioscience respectively and were and dissolved in DMSO. OCI-LY3 cells were treated with the indicated compounds in 96-well plates and there growth was determined using the CellTiter-Glo Luminescent Cell Viability Assay (Promega Corp). Typically, 30,000 OCI-Ly3 cells per well in 200 μL of growth medium were grown for 48 hrs in the presence or absence (DMSO alone) of the desired compounds, and then assayed with CellTiter Glo according to manufacturer's instructions.

For the next assay, the target named is T1, GPX4 (Homo sapiens, UniProt P36969).
T1 construct: endogenous in cells; host or cells: U-2932 cells (cleared whole-cell lysate)
T1 sequence (P36969 1-197): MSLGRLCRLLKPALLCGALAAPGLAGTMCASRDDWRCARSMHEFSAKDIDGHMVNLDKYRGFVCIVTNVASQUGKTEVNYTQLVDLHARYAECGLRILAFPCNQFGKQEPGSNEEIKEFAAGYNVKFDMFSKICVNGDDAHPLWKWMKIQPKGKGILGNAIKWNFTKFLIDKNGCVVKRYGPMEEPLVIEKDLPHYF
As to the kind of experiment: LC-MS based GPX4 assay (PC-OOH reduction) in lysates of treated cells. The class given is cell-based. To be noted: lysates of altretamine treated U-2932 cells versus untreated lysate. Here is the method: GPX4 enzymatic activity assay was performed as follows. Briefly, 1×10^6 cells were re-suspended in the cell lysis buffer. Sonication was used to make cell lysates followed by centrifugation at 14,000 rpm for 10 minutes. Protein concentration of the cleared cell lysates was determined using a Bradford protein assay (Bio-Rad). Two hundred micrograms of cellular proteins was mixed with phosphatidyl choline hydroperoxide (PC—OOH), the GPX4 specific substrate, and reduced glutathione, a GPX4 cofactor. The mixture was incubated at 37° C. for 30 minutes followed by lipid extraction using a chloroform:methanol (2:1) solution. The lipid extract was evaporated using a rotary evaporator, and re-dissolved in 100% ethanol before injecting into LC-MS instrument for PC-OOH quantitation.

In assay [1] the test system is U-2932 cells. As to the kind of experiment: Glutathione (GSH) level in treated cells. The class given is cell-based. Conditions: 1 mM, 24 hrs, versus DMSO. Here is the method: U-2932 cells were seeded in 10 cm dish (2×10^6/dish) and grown at 37° C. for 16 hrs. Cells were treated with vehicle (0.4% DMSO), 1 mM sulfasalazine (24 hr IC50) or 1 mM altretamine (double the 24 hr IC50), and incubated for 24 hrs. Cells were then harvested, pelleted, washed once with 400 μl ice-cold PBS containing 1 mM EDTA and sonicated. After the debris was pelleted and removed, both oxidized and reduced glutathione in 120 μL of sample was quantified in technical triplicate using QuantiChrome glutathione assay kit (BioAssay Sytems). The glutathione quantity was normalized to protein concentration measured with Bradford assay (Bio-Rad).

Assay [2] deals with U-2932 cells. Kind of assay: Lipid ROS by C11-BODIPY staining and flow cytometry. The class given is cell-based. To be noted: BODIPY-C11, versus DMSO. Here is the method: U-2932 cells (2×10^5) were seeded in 6-well plates and incubated at 37° C. for 16 hrs. Cells were treated with test compounds for the indicated time, then harvested, pelleted and washed once with PBS. For lipid ROS detections, cells were re-suspended with Hanks Balanced Salt Solution (HBSS, Life Technologies) containing C11-BODIPY (581/591) (2 μM) (Life Technologies) and incubated for 10 minutes at 37° C. Cells were then pelleted, re-suspended in 500 μL HBSS, strained through […] cell strainer (BD Falcon), and analyzed using BD Accuri C6 flow cytometer (BD Biosciences). C11-BODIPY signal was measured using FL1 channel. Experiments were done in biological triplicates, and a representative result was shown.

The test system of assay [3] is U-2932 cells. Kind of assay: Cell viability, 24 hr IC50. To be noted: Homo sapiens, U2932. The class given is cell-based. Here is the method: Compounds were selected based on their activity in a primary screen of FDA-approved, late-stage experimental, and tool compounds. OCI-LY3, OCI-LY7 and U-2932 cells were seeded in white, tissue culture-treated 96-well plates at a density of 5×10^4 cells per well in 100 μL total volume using the Janus automated liquid handling system (Perkin Elmer Inc.). After 12 hrs of incubation at 37° C. the plates were allowed to cool to room temperature prior to compound addition via the Janus. Compounds were transferred as 1 μL of DMSO stock solutions into the assay plates (plate based triplication), which were subsequently placed on an orbital shaker for 5 minutes and then placed back in the incubator. […] Plates were shaken 5 minutes on an orbital shaker before data acquisition in an Envision (PerkinElmer Inc.) (0.5 second read time, enhanced luminescence). IC20 values were determined using IDBS Activity Base utilizing a four parameter fit model.
U-2932 cells were seeded in 10 cm dish (2×10^6/dish) and grown at 37° C. for 16 hrs. […] After the debris was pelleted and removed, both oxidized and reduced glutathione in 120 μL of sample was quantified in technical triplicate using QuantiChrome glutathione assay kit (BioAssay Sytems). The glutathione quantity was normalized to protein concentration measured with Bradford assay (Bio-Rad).

The subject of assay [4] is U-2-OS cells. As to the kind of experiment: Microtubule network visualised with anti-tubulin antibody. It is filed as cell-based. To be noted: vincristine 4 nM for 24 hrs, compared to DMSO / non-specific siRNA. Here is the method: Cells were grown on coverslips to ˜50% confluency and treated with compounds for 24 hrs. Cells were fixed with 3.7% formaldehyde solution in PBS for 15-30 minutes followed by washing with PBS 5 times. Cell membrane was permeabilized with 0.2% Triton-X in PBS for 10 minutes and rinsed once with TBS (10 mM Tris [pH 7.5], 150 mM NaCl). The permeabilized sample was blocked with 10% goat serum in TTBS (0.1% Tween-20 in TBS) for 30-60 minutes and washed once with TTBS. The microtubule network was probed with anti-tubulin antibody (Santa Cruz cat #sc-32293) in 1% goat serum in TTBS for 30-60 minutes at room temperature followed by washing in TTBS for 10 minutes. Alexa Fluor anti-mouse antibody (Invitrogen, cat #A-11005) was used as the secondary antibody to visualize the microtubule network using the 60× lens of a confocal microscope.

The test system of assay [5] is U-2-OS cells. Kind of assay: Vincristine dose-response (alamar Blue growth inhibition) after siRNA-mediated gene silencing. The class given is cell-based. Here is the method:
Small interfering RNA (siRNA) targeting each specified gene and siControl SMARTpools were obtained from Dharmacon Technologies (see Table 3). Reverse transfection was performed by preparing a solution of 1 mL of Opti-MEM (Invitrogen), […], of Lipofectamine-RNAiMAX reagent (Invitrogen) and 1.25 μL of 10 μM RNAi solution (final working concentration is […]), and incubating the mixture (1 mL/well) in a 6-well dish for 20 minutes at 37° C. U-2-OS cells were detached from culture flask, and re-suspended in 2× serum-containing media at a density of 4×10^5 cells/mL. One mL of cell suspension was transferred to each well containing the transfection mixture, and the 6-well plate was returned to culture incubator. After 48 hrs, cells were detached and reverse transfected again using the same procedures. After 48 hrs, cells were trypsinized and reseeded into 384-well format to determine sensitivity against vincristine. […] Plates were incubated further for 16 hrs to allow reduction of alamar Blue, which results in the generation of red fluorescence. The fluorescence intensity was determined using a Victor 3 plate reader (Perkin Elmer, Inc.), and used to calculated percent growth inhibition.

pIC50: −log10 of the molar value. Entries after “also recorded” stand apart in the source; their conditions may differ.

Consider `Cc1cnc(Nc2ccc(OCCN3CCCC3)cc2)nc1Nc1cccc(S(=O)(=O)NC(C)(C)C)c1` [TG101348], for which the “effect of JAK2 inhibition on mitomycin C activity (percent cell inhibition)” value with OCI-LY3 cells is listed as “significant, dose-dependent antagonism”.
`CN(C)c1nc(N(C)C)nc(N(C)C)n1` [altretamine]: the “GPX4 activity (residual PC-OOH signal)” value on GPX4 is “decreases the activity of GPX4; also recorded: displayed a significant [PC—OOH+H^+] signal”. Also, the GSH levels entry with U-2932 cells [1] is recorded as “indistinguishable from the control; also recorded: did not deplete GSH levels”. In the assay on U-2932 cells [2], the lipid-ROS levels result is recorded as “significantly increases the levels of lipid-ROS; also recorded: induce lipid-ROS accumulation”.
Consider `CO[C@@]12[C@H](COC(N)=O)C3=C(C(=O)C(C)=C(N)C3=O)N1C[C@@H]1N[C@@H]12` [mitomycin C], for which the “effect of JAK2 inhibition on mitomycin C activity (percent cell inhibition)” value with OCI-LY3 cells is on record as “reduction in the sensitivity of the cells; also recorded: significant, dose-dependent antagonism”.
`O=C(O)c1cc(/N=N/c2ccc(S(=O)(=O)Nc3ccccn3)cc2)ccc1O` [sulfasalazine] showed a negative-log IC50 (pIC50) in the assay on U-2932 cells [3] of 3.00. The GSH levels entry in the assay on U-2932 cells [1] is recorded as “reduces the levels of active GSH compared to control”; with U-2932 cells [1] (listed as Sulfasalazine) it was “depletion of GSH levels”. Further, the lipid-ROS levels result with U-2932 cells [2] is given as “significantly increases the levels of lipid-ROS; also recorded: induce lipid-ROS accumulation”.
Regarding `CC[C@]1(O)C[C@H]2CN(CCc3c([nH]c4ccccc34)[C@@](C(=O)OC)(c3cc4c(cc3OC)N(C=O)[C@H]3[C@@](O)(C(=O)OC)[C@H](OC(C)=O)[C@]5(CC)C=CCN6CC[C@]43[C@@H]65)C2)C1` [vincristine], the “effect on microtubule network” value in the assay with U-2-OS cells [4] was “significantly altered microtubule network”. In the assay on U-2-OS cells [5] (siRNA targeting CCNB1, 48 hrs vincristine), the “change of vincristine sensitivity after CCNB1 silencing” value is given as “reduces the cell sensitivity; also recorded: had the opposite effect”. The “change of vincristine sensitivity after RPS3A silencing” value in the assay on U-2-OS cells [5] (siRNA targeting RPS3A, 48 hrs vincristine) is recorded as “reduces the cell sensitivity; also recorded: had the opposite effect”. For the same molecule, the “change of vincristine sensitivity after VHL silencing” value with U-2-OS cells [5] (siRNA targeting VHL, 48 hrs vincristine) is on record as “increases the sensitivity two-folds; also recorded: more than two-fold”.

These data come from patent publication US11302422B2, “Methods and systems for identifying a drug mechanism of action using network dysregulation” (THE TRUSTEES OF COLUMBIA UNIVERSITY IN THE CITY OF NEW YORK, priority 2014, dated 2022).
